Data as given in ChEMBL document CHEMBL1909046, “DrugMatrix in vitro pharmacology data”.

How the values were obtained:
[1] = DRUGMATRIX: Calcium Channel Type L, Dihydropyridine radioligand binding (ligand: [3H] Nitrendipine); format: cell membranes, Rattus norvegicus, Wistar, Cerebral cortex, Membrane; settings: Not Active = under 50% inhibition at 10 µM
D(3) dopamine receptor = D(3) dopamine receptor (Homo sapiens, UniProt P35462); test: DRUGMATRIX: Dopamine D3 radioligand binding (ligand: [3H] Spiperone); format: cell membranes, CHO, Membrane
D(3) dopamine receptor, sequence (P35462 whole entry): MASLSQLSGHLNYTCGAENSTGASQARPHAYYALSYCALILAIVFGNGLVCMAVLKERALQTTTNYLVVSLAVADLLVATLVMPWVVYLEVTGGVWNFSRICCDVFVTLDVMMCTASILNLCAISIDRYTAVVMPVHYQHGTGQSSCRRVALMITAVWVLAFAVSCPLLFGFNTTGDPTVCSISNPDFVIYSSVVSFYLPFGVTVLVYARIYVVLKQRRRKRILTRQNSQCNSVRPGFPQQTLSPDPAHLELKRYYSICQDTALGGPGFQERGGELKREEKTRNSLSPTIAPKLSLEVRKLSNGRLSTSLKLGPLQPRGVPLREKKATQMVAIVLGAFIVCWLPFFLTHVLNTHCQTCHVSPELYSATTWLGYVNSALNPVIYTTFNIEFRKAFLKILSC

[2] = target: T1, Neuropeptide Y receptor type 2 (Homo sapiens, UniProt P49146); format: cell membranes, Membrane; settings: kan-ts; note: in other assays of this panel Not Active means under 50% inhibition at 10 µM
T1 sequence (P49146 whole entry): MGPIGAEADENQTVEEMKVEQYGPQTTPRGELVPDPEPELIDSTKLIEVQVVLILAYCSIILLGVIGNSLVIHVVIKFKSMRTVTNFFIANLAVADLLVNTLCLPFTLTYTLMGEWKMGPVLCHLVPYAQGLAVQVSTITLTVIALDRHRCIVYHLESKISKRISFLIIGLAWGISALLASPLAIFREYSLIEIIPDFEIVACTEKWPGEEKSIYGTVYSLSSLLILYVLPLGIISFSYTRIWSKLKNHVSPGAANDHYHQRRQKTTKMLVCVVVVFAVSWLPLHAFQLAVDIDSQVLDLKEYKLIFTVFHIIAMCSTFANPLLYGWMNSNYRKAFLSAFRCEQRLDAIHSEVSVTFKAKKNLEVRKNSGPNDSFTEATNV

[3] = target: Kappa-type opioid receptor (Homo sapiens, UniProt P41145); test: DRUGMATRIX: Opiate kappa (OP2, KOP) radioligand binding (ligand: [3H] Diprenorphine); format: cell membranes, HEK293, Membrane; settings: Not Active = under 50% inhibition at 10 µM
Kappa-type opioid receptor, sequence (P41145 whole entry): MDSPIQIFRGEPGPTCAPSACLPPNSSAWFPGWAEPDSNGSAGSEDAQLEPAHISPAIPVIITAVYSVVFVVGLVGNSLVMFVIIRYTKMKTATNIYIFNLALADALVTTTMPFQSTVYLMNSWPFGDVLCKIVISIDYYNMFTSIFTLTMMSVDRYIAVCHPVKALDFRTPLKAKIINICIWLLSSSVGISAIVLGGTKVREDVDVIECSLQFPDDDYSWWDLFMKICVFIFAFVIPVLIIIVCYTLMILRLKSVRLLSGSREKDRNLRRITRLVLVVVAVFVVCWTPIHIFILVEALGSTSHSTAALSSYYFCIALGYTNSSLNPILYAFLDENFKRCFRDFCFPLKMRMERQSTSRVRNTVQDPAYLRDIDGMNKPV

Adenosine receptor A3 = target: T2, Adenosine receptor A3 (Homo sapiens, UniProt P0DMS8); format: cell membranes, CHO-K1, Membrane;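 note: radioligand binding assay with AB-MECA serving as the labeled ligand; in other assays of this panel Not Active means under 50% inhibition at 10 µM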
T2 sequence (P0DMS8 whole entry): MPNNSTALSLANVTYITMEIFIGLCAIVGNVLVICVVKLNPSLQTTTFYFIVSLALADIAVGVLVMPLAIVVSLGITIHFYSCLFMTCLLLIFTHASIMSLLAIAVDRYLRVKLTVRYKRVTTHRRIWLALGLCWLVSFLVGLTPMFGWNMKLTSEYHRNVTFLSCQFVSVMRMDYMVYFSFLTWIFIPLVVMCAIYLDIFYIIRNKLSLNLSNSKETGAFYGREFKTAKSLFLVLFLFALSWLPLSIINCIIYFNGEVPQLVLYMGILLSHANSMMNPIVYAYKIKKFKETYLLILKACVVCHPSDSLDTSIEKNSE

Structure (SMILES) | IC50 [1] | Ki [1] | IC50 (D(3) dopamine receptor; cho) | IC50 [2] | IC50 ([3]; hek293) | IC50 (Adenosine receptor A3; cho-k1) | Ki (D(3) dopamine receptor) [nM] | IC50 (D(3) dopamine receptor; read-out: IC50) [nM] | IC50 ([1]; read-out: IC50) [nM] | Ki ([1]; read-out: Ki) [nM] | Ki (D(3) dopamine receptor; read-out: Ki) [nM] | IC50 ([3]; read-out: IC50) [nM] | Ki ([3]; read-out: Ki) [nM] | IC50 (Adenosine receptor A3; read-out: IC50) [nM] | Ki (Adenosine receptor A3; read-out: Ki) [nM]
CCc1c2c(nc3ccc(OC(=O)N4CCC(N5CCCCC5)CC4)cc13)-c1cc3c(c(=O)n1C2)COC(=O)[C@]3(O)CC [IRINOTECAN] | Not Active | Not Active | Not Active | Not Active | Not Active | Not Active | – | – | – | – | – | – | – | – | –
CCCN(CCC)C(=O)C(CCC(=O)O)NC(=O)c1ccccc1 (stereo unspecified) [PROGLUMIDE] | Not Active | Not Active | Not Active | Not Active | Not Active | Not Active | – | – | – | – | – | – | – | – | –
CCCC(CCC)C(=O)O [VALPROIC ACID] | Not Active | Not Active | Not Active | Not Active | Not Active | Not Active | – | – | – | – | – | – | – | – | –
Cc1ccccc1C(=O)N1CCC(Cc2ccccc2)CC1 | Not Active | Not Active | Not Active | Not Active | Not Active | Not Active | – | – | – | – | – | – | – | – | –
CCCC(=O)Nc1ccc(OCC(O)CNC(C)C)c(C(C)=O)c1 (stereo unspecified) [ACEBUTOLOL] | Not Active | Not Active | Not Active | Not Active | Not Active | Not Active | – | – | – | – | – | – | – | – | –
OC(CCN1CCCCC1)(c1ccccc1)C1CCCCC1 (stereo unspecified) [TRIHEXYPHENIDYL] | Not Active | Not Active | Not Active | Not Active | Not Active | Not Active | – | – | – | – | – | – | – | – | –
Cc1ccc(S(=O)(=O)NC(=O)NN2CC3CCCC3C2)cc1 (stereo unspecified) [GLICLAZIDE] | Not Active | Not Active | Not Active | Not Active | Not Active | Not Active | – | – | – | – | – | – | – | – | –
N=C(N)NC(=O)c1nc(Cl)c(N)nc1N [AMILORIDE] | Not Active | Not Active | Not Active | Not Active | Not Active | Not Active | – | – | – | – | – | – | – | – | –
CC(C)(Oc1ccc(C2CCCc3ccccc32)cc1)C(=O)O (stereo unspecified) [NAFENOPIN] | Not Active | Not Active | Not Active | Not Active | Not Active | Not Active | – | – | – | – | – | – | – | – | –
Cc1cc2cc3c(C)cc(=O)oc3c(C)c2o1 [TRIOXSALEN] | Not Active | Not Active | Not Active | Not Active | Not Active | Not Active | – | – | – | – | – | – | – | – | –
Oc1ccc(OCc2ccccc2)cc1 [MONOBENZONE] | Not Active | Not Active | Not Active | Not Active | Not Active | Not Active | – | – | – | – | – | – | – | – | –
O=C1CC2(CCCC2)CC(=O)N1CCCCN1CCN(c2ncccn2)CC1 [BUSPIRONE] | Not Active | Not Active | – | Not Active | Not Active | Not Active | 15 | 44 | – | – | – | – | – | – | –
COc1cccc2c1C(=O)c1c(O)c3c(c(O)c1C2=O)C[C@@](O)(C(=O)CO)C[C@@H]3O[C@H]1C[C@H](N)[C@@H](O)[C@H](C)O1 [EPIRUBICIN] | Not Active | Not Active | Not Active | Not Active | Not Active | Not Active | – | – | – | – | – | – | – | – | –
C#C[C@]1(O)CC[C@H]2[C@@H]3CCc4cc(OC)ccc4[C@H]3CC[C@@]21C [MESTRANOL] | Not Active | Not Active | Not Active | Not Active | Not Active | Not Active | – | – | – | – | – | – | – | – | –
CN(C)c1ccc(C(=C2C=CC(=[N+](C)C)C=C2)c2ccc(N(C)C)cc2)cc1.[Cl-] [GENTIAN VIOLET] | – | – | – | Not Active | – | – | – | 831 | 2130 | 1370 | 282 | 1540 | 616 | 4170 | 2350
CCCCN1CCCCC1C(=O)Nc1c(C)cccc1C.Cl (stereo unspecified) [BUPIVACAINE HYDROCHLORIDE] | Not Active | Not Active | Not Active | Not Active | Not Active | Not Active | – | – | – | – | – | – | – | – | –
Nc1ccn([C@@H]2CS[C@H](CO)O2)c(=O)n1 [LAMIVUDINE] | Not Active | Not Active | Not Active | Not Active | Not Active | Not Active | – | – | – | – | – | – | – | – | –
